Data published in patent US20200261418A1, “HDAC INHIBITOR IN COMBINATION WITH IMMUNE CHECKPOINT MODULATOR FOR CANCER THERAPY” (4SC AG, priority 2017, published 2020).
Like-named read-outs stand apart in the source and are kept apart here.

Legend:
[1] = Handling of 4SC-202 tosylate calibration solutions (light stability); assay type: physicochemical; conditions: solutions in dimethylsulfoxide and dimethylsulfoxide/acetonitrile
Experimental: For the preparation of calibration samples, 4SC-202 tosylate salt was dissolved in dimethylsulfoxide to a concentration of 1.00 mg/mL free base. For the preparation of QC samples, a second solution with a concentration of 1.00 mg/mL free base was used. Working solutions were prepared by serial dilutions in a mixture of dimethylsulfoxide/acetonitrile (50/50, v/v) to concentrations 50 times higher than the corresponding concentrations in matrix. The concentrations were calculated under consideration of purity and salt factor where applicable. All concentrations are expressed as those of the free base. […] The concentrations of the calibration are (ng/mL): 1.00, 2.00, 5.00, 20.00, 100, 500, 750, 1000. The concentrations of the QC are (ng/mL): 13.00, 20.00, 750 For preparation of the CAL and QC, the matrix was fortified with the working solutions using a ratio of 98/2 (v/v). For the preparation of the internal standard solution, 4SC-201-d6 mesylate salt was dissolved in dimethylsulfoxide to a concentration of 1.00 mg/mL of the free base. Further dilutions to a final concentration of 100 ng/mL were done in acetonitrile. The concentration was calculated under consideration of purity and salt factor.

C38 tumor fragments = assay: Preclinical murine in vivo tumor model, C38; set-up: species or system female C57Bl/6 mice; conditions: C38 model (FIG. 1); anti-PD1 10 mg/kg IP; 4SC-202 at 20 mg/kg PO alone or combined
Experimental: (§1) In vivo murine tumor models were conducted with a combination of 4SC-202 and murine anti-PD-1 and anti-PD-L1 antibodies, respectively. 1×10^6 CT26 cells or 30-50 mg C38 tumor fragments (both […] colon carcinoma cell lines) were subcutaneous implantation into the right flank of female C57Bl/6 (C38 tumor fragments) or Balb/c (CT26 cells) mice, respectively, at day 0 of the experiment.
Protocol C38: At D10, when tumors reached a mean volume of 142±27 mm^3, 160 mice out of 224, were randomized according to their individual tumor volume into 8 groups of 20 mice each. […]
(§2) Monitoring of mice body weights and tumor volume twice a week. […] Tumor width and length were measured using a digital caliper twice a week and estimated tumor volumes were calculated from measured tumor length and width using the formula Estimated tumor volume=width^2×length/2. […]

[2] = Food effect dog study, plasma pharmacokinetics; assay type: in vivo, dogs (male Beagle); conditions: approx. 60 mg/kg oral tablets; for AUC: male, Beagle, dog, plasma, po, 60 mg/kg, three dogs, read-out: AUC geometric mean
Experimental: A pharmacokinetic profile for 4SC-202 was determined in an animal study comprising three dogs (male Beagle). To allow for better comparison of the fasted/fed values and eliminate inter-subject variability, each dog first received a first dose of 4SC-202 in the fasted state, and after a wash-out phase of one week, received another dose of 4SC-202 in the fed state. After each respective dose, the plasma pK of 4SC-202 was determined
Before the first dosing, the dogs were fasted overnight and food was returned after the 4 h post-dose blood sampling collections. On each dosing day, the dogs received a single intramuscular injection of freshly prepared Pentagastrin (6 μg/kg and 0.05 mL/kg) 30-33 min prior to oral treatment with approx. 60 mg/kg 4SC-202 (tablet as detailed herein below); for fed animals, these steps were omitted and the dogs received their usual meal approx. 30 min prior to dosing. The number of tablets (4SC-202 tosylate corresponding to 100 mg 4SC-202 free base per tablet) was rounded to the nearest whole tablet based on dose and animal pre-dose body weight. Immediately after dosing the animals received 20 mL of water after oral gavage or were offered 20 mL of water to assist swallowing of the tablets.
Blood samples (1 ml per sample in K2EDTA as anticoagulant) were collected by venipuncture of a peripheral vein and placed on wet ice immediately after collection until centrifugation as 2000*g for 10 min at 2-8° C. to isolate plasma. […]
The concentration of 4SC-202 (free base) in plasma samples was determined by first precipitating the samples with three volume equivalents of acetonitrile containing the internal standard. […]
For the preparation of calibration samples, 4SC-202 tosylate salt was dissolved in dimethylsulfoxide to a concentration of 1.00 mg/mL free base. […] The concentrations were calculated under consideration of purity and salt factor where applicable. All concentrations are expressed as those of the free base. […] The concentration was calculated under consideration of purity and salt factor. […]

CT26 cells = assay: Preclinical murine in vivo tumor model, CT26; set-up: species or system female Balb/c mice; conditions: CT26 model (FIG. 2); anti-PD-L1 10 mg/kg IP; 4SC-202 at 20 mg/kg PO alone or combined
Experimental: as §1
Protocol CT26: At D7, when tumors reached a mean volume of 73±21 mm^3, 80 mice out of 104, were randomized according to their individual tumor volume into 4 groups of 20 mice each. […]
as §2

[3] = tested on: heavily pre-treated patients with different types of blood cancer; conditions: cited from earlier work

Compound	light stability of solutions [1]	anti-tumor activity compared to mice treated with vehicle (C38 tumor fragments)	AUC increase of the fed state over the fasted state ([2]; dogs)	AUC ([2]; fasted) [µg·h/mL]	AUC ([2]; fed) [µg·h/mL]	anti-tumor activity compared to mice treated with vehicle (CT26 cells)	tolerability (adverse events) ([3]; 24 heavily pre-treated patients, few and/or manageable adverse events)	disease control, share of patients ([3]; 24 patients) [%]	long-term stabilization, share of patients ([3]; 24 patients) [%]	complete remission, duration ([3]; one complete remission among 24 patients) [months]	partial responder, duration ([3]; one partial responder among 24 patients) [months]
Cc1ccc(S(=O)(=O)O)cc1.Cn1cc(-c2ccc(S(=O)(=O)n3ccc(/C=C/C(=O)Nc4ccccc4N)c3)cc2)cn1 [4SC-202 tosylate salt]	light instability	–	–	–	–	–	–	–	–	–	–
Cn1cc(-c2ccc(S(=O)(=O)n3ccc(/C=C/C(=O)Nc4ccccc4N)c3)cc2)cn1 [Compound 4SC-202, (E)-N-(2-aminophenyl)-3-(1-((4-(1-methyl-1H-pyrazol-4-yl)phenyl)sulfonyl)-1H-pyrrol-3-yl)acrylamide]	–	increase of the antitumor activity	about 3.5 fold	3.98	13.9	increase of the antitumor activity	well tolerated	83	50	28	8
